The source of these data is patent US5002753A, “Specific ligands for estrogen and progestagen steroid hormone receptors, application and intermediate synthesis products” (IRE-Celltarg S.A., priority 1988, dated 1991).

Molecules are shown by their SMILES. Where two headings read alike, the source gives them in different places.

In series [1] the test system is MXT syngenetic mammary tumors. Put plainly: Targeted radiotherapy of female BDF1 mice grafted with MXT syngenetic mammary tumors. Format: in vivo. As to the method: (§1) Twenty nine female BDF1 mice were grafted with MXT syngenetic mammary tumors implanted subcutaneously. Fourteen mice received three intravenous injections of 100 μCi of 11beta-chloromethyl-17-iodovinyl- ^123 I of E isomerism at fortnightly intervals.
(§2) The 100 μCi of labeled hormone were injected diluted in 200 μl of solution containing 9 g/l NaCl, 5% ethanol and 1% of Tween 80. The fifteen control mice received 200 μl of the NaCl/ethanol/Tween solution on the same dates.

A short description of series [2]: Acute toxicity in mice grafted with MXT mammary tumors. Format: in vivo, female BDF1 mice. As to conditions: three i.v. injections of 100 μCi at fortnightly intervals, period of 60 days. The method, then:
as §1, §2

The next series deals with T1, estrogen receptors (Homo sapiens, UniProt P03372).
T1 construct: cytosols of MCF7 mammary human tumor rich in estrogen receptors; endogenous in cells; host or cells: MCF7 human mammary tumor, cytosol
T1 sequence (P03372 1-595): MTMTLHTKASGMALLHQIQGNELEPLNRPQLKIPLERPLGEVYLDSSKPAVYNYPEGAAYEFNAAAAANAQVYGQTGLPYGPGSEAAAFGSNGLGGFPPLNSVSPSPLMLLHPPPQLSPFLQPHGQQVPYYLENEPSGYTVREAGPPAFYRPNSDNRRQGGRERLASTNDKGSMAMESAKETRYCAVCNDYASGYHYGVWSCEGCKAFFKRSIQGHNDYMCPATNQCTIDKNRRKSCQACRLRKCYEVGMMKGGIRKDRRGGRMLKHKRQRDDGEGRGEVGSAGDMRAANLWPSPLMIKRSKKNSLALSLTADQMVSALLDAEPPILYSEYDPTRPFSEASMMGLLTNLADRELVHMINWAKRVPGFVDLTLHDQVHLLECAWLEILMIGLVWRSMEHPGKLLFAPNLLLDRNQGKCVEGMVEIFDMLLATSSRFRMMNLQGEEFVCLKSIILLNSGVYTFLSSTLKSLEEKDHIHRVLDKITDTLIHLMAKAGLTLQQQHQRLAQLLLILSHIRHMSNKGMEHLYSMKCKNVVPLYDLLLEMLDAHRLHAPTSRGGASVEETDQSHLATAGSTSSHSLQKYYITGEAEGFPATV
Nature of the series: Inhibition of the fixation of tritiated estradiol on cytosols of MCF7 mammary human tumor. It is filed as binding. As to conditions: 25° C, MCF7 cytosol.

Series [3] is described as follows: Hydrophobicity index based on retention time in reverse phase HPLC. It is filed as physicochemical. Details: retention time (hydrophobicity index): dose or concentration left out as unconfirmed. To be noted: for retention time (hydrophobicity index): HPLC reverse phase, microBondapack C18, 1 ml/min of ethanol in H2O.
The nature of series [4]: Stability of the radioiodinated product in column eluate (60% ethanol) at -20° C. It is filed as physicochemical. As to the method: The method is the same as for the labelling of (14').
The starting material is the derivative (15').
The HPLC separation conditions are different: the mobile phase is 60% ethanol in water, the flow rate is 1 ml/min, the final product is collected at 12 minutes. The labeled product is kept as such in the column eluate (60% ethanol). In these conditions, it is stable for at least 12 days at -20° C. (deiodination less than 2%).

Series [5] can be described thus: Biodistribution of 125I-labeled Z isomer (16') in ovarectomized BDF1 mice. Format: in vivo. As to conditions: for tissue uptake at 2 h / tissue uptake at 24 h: mouse, 1 uCi, 1 μCi 125I, ± S.D. The method, then: The biodistribution of the Z isomer (16') in ovarectomized BDF mice is highly favorable.
8 ovarectomized BDF1 mice were injected with 1 μCi of 11beta-chloromethyl-17alpha-(2-iodovinyl)estradiol-(^125 I). 4 mice were sacrificed 2 hours after the estradiolinjection and 4 24 hours after the injection.

A further series concerns the target T2, estrogen receptor (Bos taurus, UniProt P49884).
T2 sequence (P49884 1-596): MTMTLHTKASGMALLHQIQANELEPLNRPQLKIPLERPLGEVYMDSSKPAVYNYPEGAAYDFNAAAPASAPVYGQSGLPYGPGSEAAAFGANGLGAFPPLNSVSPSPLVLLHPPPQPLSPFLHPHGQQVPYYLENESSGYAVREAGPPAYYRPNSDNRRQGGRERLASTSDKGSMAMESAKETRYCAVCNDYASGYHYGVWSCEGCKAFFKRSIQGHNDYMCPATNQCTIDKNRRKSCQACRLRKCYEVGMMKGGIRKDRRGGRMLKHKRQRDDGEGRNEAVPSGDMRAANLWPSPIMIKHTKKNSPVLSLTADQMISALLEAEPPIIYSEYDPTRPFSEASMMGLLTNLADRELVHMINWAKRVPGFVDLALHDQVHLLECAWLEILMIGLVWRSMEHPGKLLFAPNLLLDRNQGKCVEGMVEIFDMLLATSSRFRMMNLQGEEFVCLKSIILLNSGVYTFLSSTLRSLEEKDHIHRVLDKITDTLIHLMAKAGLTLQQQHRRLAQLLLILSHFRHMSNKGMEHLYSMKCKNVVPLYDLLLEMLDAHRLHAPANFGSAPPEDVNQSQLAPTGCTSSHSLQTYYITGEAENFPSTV
Nature of the series: Tests of binding of calf uterus cytosol to the estrogen receptor. The source says:
The nonspecific binding to the transport proteins is diminished by virtue of the presence of the 11-beta and 17-alpha groups.

The conditions of series [6]: rat, in vivo, 1440 min; cited from earlier work.
Setting [7] is: blood, read-out: % injected dose/g of tissue, blood.
The mark [8] stands for this setting: fat, read-out: % injected dose/g of tissue, fat.
Where [9] appears, read: kidneys, read-out: % injected dose/g of tissue, kidneys.
Where [10] appears, read: liver, read-out: % injected dose/g of tissue, liver.
The mark [11] stands for this setting: muscle, read-out: % injected dose/g of tissue, muscle.
The mark [12] stands for this setting: spleen, read-out: % injected dose/g of tissue, spleen.
Where [13] appears, read: uterus, read-out: % injected dose/g of tissue, uterus.

For `C[C@]12C[C@H](CCl)[C@@H]3c4ccc(O)cc4CC[C@H]3[C@@H]1CC[C@@]2(O)/C=C/[123I]` [11beta-chloromethyl-17-iodovinyl- ^123 I of E isomerism, 11Beta-Chloromethyl-17-Iodovinylestradiol-^123 I], the “tumor growth compared with the control group, % of the average tumor growth” value in series [1] (day 18, three i.v. injections of 100 μCi at fortnightly intervals) is “lower than 45%”. Besides, the “tumor growth compared with the control group (in words)” value in series [1] (three i.v. injections of 100 μCi at fortnightly intervals) was “significant slowing down of the tumor growth”. The survival result in series [1] (versus control group) was “better survival”. Further, the acute toxicity entry in series [2] is on record as “No acute toxicity was detected”.

As to `C[C@]12C[C@H](CCl)[C@@H]3c4ccc(O)cc4CC[C@H]3[C@@H]1CC[C@@]2(O)C=CI` [11beta-chloromethyl-17-iodovinylestradiol], the “affinity (in words)” value on estrogen receptors is “an affinity comparable with that of 11beta-chloromethylestradiol and clearly superior to that of estradiol”. Besides, on estrogen receptors (versus estradiol), the relative binding affinity entry was “greater than 1,000”.

For `C[C@]12C[C@H](CCl)[C@@H]3c4ccc(O)cc4CC[C@H]3[C@@H]1CC[C@@]2(O)/C=C/I` [14', (E)-11-chloromethyl-3,17β-dihydroxy-17α-(2iodovinyl)-1,3,5(10)-estratriene], the “retention time (hydrophobicity index)” value in series [3] is 14.3 min.

Compound `C[C@]12C[C@H](CCl)[C@@H]3c4ccc(O)cc4CC[C@H]3[C@@H]1CC[C@@]2(O)/C=C\I` [16', (Z)-11beta-chloromethyl-3,17beta-dihydroxy17alpha-(2-iodovinyl)-1,3,5(10)-estratriene] gave a degraded at 288 h in series [4] (60% ethanol) of less than 2%. The “stable for at least (storage stability of labeled product)” value in series [4] (column eluate (60% ethanol), -20° C) was “at least 12 days”. Besides, the “retention time (hydrophobicity index)” value in series [3] worked out at 12.1 min. The “hydrophobicity, Z isomer versus E isomer (in words)” value in series [3] (comparison of Z with E isomer) was “less hydrophobic than the E isomer”. Besides, the uterus/blood concentration ratio in series [5] (2 h) is given as 6.16; in series [5] (24 h), 65.80. The uterus/fat concentration ratio in series [5] (2 h) is listed as 2.90; in series [5] (24 h), 35.42. The uterus/liver concentration ratio worked out at 1.30 in series [5] (2 h) and 10.12 in series [5] (24 h). For the same compound, the uterus/muscle concentration ratio is given as 7.48 in series [5] (2 h) and 92.10 in series [5] (24 h). Further, the tissue uptake at 2 h in series [5] (setting [7]) is 1.08 ± 0.24 %ID/g; in series [5] (setting [8]), 2.29 ± 0.25 %ID/g; in series [5] (setting [9]), 1.84 ± 0.27 %ID/g; in series [5] (setting [10]) it was 5.1 ± 0.72 %ID/g; in series [5] (setting [11]), 0.89 ± 0.07 %ID/g; in series [5] (setting [12]), 0.97 ± 0.18 %ID/g. Besides, the tissue uptake at 2 h in series [5] (setting [13]) was found to be 6.66 ± 0.91 %ID/g. Also, the tissue uptake at 24 h in series [5] (setting [7]) came out at 0.14 ± 0.02 %ID/g; in series [5] (setting [8]), 0.26 ± 0.09 %ID/g; in series [5] (setting [9]) it was 0.2 ± 0.02 %ID/g; in series [5] (setting [10]) it was 0.91 ± 0.05 %ID/g; in series [5] (setting [11]), 0.1 %ID/g; in series [5] (setting [12]) it was 0.12 ± 0.01 %ID/g. Further, the tissue uptake at 24 h in series [5] (setting [13]) came to 9.21 ± 1.44 %ID/g. In addition, the “binding to the estrogen receptor (in words)” value on estrogen receptor (25° C, 1 h, final 5 mM, versus tritiated estradiol) was “binding of the same order as the tritiated estradiol”. On estrogen receptor (25° C, 1 h, saturating dose (final 5 mM), calf uterus cytosol), this compound had a nonspecific binding of 23%. In addition, the “nonspecific binding to the transport proteins (in words)” value on estrogen receptor (versus tritiated estradiol) is “diminished”. Further, at estrogen receptor (versus tritiated estradiol, by virtue of the higher specific activity), the “sensitivity level (in words)” value is “higher sensitivity level”.

For the compound `CCC1C[C@@]2(C)[C@@H](CCC2(O)C=C[125I])[C@@H]2CCc3cc(O)ccc3[C@@H]12` (stereo partly shown) [I-125 17-iodovinyl-11-ethylestradiol, 17-iodovinyl-11-ethylestradiol], in series [6], the uterus/blood ratio was 40.4, the uterus/liver ratio is listed as 3.89 and the uterus/lung ratio was 52.8.
